Data taken from the NIST ThermoML archive (doi:10.1021/acs.jced.5b00105).

Experiment: refractive index (Na D-line) (dimensionless); xn = mol fraction of the nth substance listed
Settings: 100 kPa, Liquid

CCCCC1CCCCC1 [butylcyclohexane] + CC(C)CC(C)(C)C
refractive index
Settings | 293.15 K | 298.15 K | 303.15 K | 308.15 K | 313.15 K | 318.15 K | 323.15 K
x1 = 0.0999 | 1.3972 | – | 1.3928 | – | 1.3884 | – | –
x1 = 0.1008 | – | 1.3944 | – | 1.3898 | – | 1.3849 | 1.3824
x1 = 0.2 | – | 1.4001 | – | 1.3953 | – | 1.3907 | 1.3885
x1 = 0.2002 | 1.4026 | – | 1.3981 | – | 1.3935 | – | –
x1 = 0.3001 | 1.4079 | 1.4055 | 1.4034 | 1.4008 | 1.3988 | 1.3959 | 1.3943
x1 = 0.3996 | 1.413 | – | 1.4087 | – | 1.4042 | – | –
x1 = 0.3999 | – | 1.4105 | – | 1.4057 | – | 1.4015 | 1.3993
x1 = 0.5004 | – | 1.4155 | – | 1.4112 | – | 1.4069 | 1.4045
x1 = 0.5005 | 1.4181 | – | 1.4139 | – | 1.4094 | – | –
x1 = 0.5999 | – | 1.4204 | – | 1.4158 | – | 1.4118 | 1.4093
x1 = 0.6003 | 1.423 | – | 1.4186 | – | 1.4141 | – | –
x1 = 0.6994 | 1.4276 | – | 1.423 | – | 1.4185 | – | –
x1 = 0.6995 | – | 1.4249 | – | 1.4207 | – | 1.4161 | 1.4145
x1 = 0.7998 | – | 1.4295 | – | 1.4249 | – | 1.4208 | 1.4184
x1 = 0.8 | 1.4321 | – | 1.4274 | – | 1.4229 | – | –
x1 = 0.9 | – | 1.4335 | – | 1.4292 | – | 1.4248 | 1.4229
x1 = 0.9001 | 1.4362 | – | 1.4314 | – | 1.4271 | – | –
x1 = 1 | 1.4403 | 1.4377 | 1.4355 | 1.4333 | 1.4314 | 1.429 | 1.4268

CCC1CCCCC1 [ethylcyclohexane] + CC(C)CC(C)(C)C
refractive index
Settings | 293.15 K | 298.15 K | 303.15 K | 308.15 K | 313.15 K | 318.15 K | 323.15 K
x1 = 0.1 | 1.3959 | 1.3926 | 1.3918 | 1.3889 | 1.3877 | 1.3826 | 1.3805
x1 = 0.1999 | – | 1.3965 | – | 1.3932 | – | 1.3867 | 1.3849
x1 = 0.2 | 1.4005 | – | 1.3964 | – | 1.3924 | – | –
x1 = 0.3 | – | 1.4004 | – | 1.3975 | – | 1.3912 | 1.3891
x1 = 0.3003 | 1.4043 | – | 1.4003 | – | 1.396 | – | –
x1 = 0.3997 | 1.4084 | – | 1.4041 | – | 1.4003 | – | –
x1 = 0.4 | – | 1.4046 | – | 1.4015 | – | 1.3954 | 1.3931
x1 = 0.5 | – | 1.4086 | – | 1.4059 | – | 1.3996 | 1.3975
x1 = 0.5002 | 1.4123 | – | 1.4084 | – | 1.4047 | – | –
x1 = 0.6001 | – | 1.4129 | – | 1.4098 | – | 1.4037 | 1.4015
x1 = 0.6005 | 1.4167 | – | 1.4125 | – | 1.4087 | – | –
x1 = 0.7002 | 1.4207 | – | 1.4169 | – | 1.4132 | – | –
x1 = 0.7004 | – | 1.4172 | – | 1.4146 | – | 1.4081 | 1.4059
x1 = 0.8001 | – | 1.4214 | – | 1.4186 | – | 1.4118 | 1.4097
x1 = 0.8003 | 1.4254 | – | 1.4211 | – | 1.4175 | – | –
x1 = 0.8994 | – | 1.4256 | – | 1.4228 | – | 1.4161 | 1.4144
x1 = 0.8997 | 1.4295 | – | 1.4253 | – | 1.4216 | – | –
x1 = 1 | 1.4337 | 1.4301 | 1.4295 | 1.4278 | 1.4259 | 1.4204 | 1.4187

CC1CCCCC1 [methylcyclohexane] + CC(C)CC(C)(C)C
refractive index
Settings | 293.15 K | 298.15 K | 303.15 K | 308.15 K | 313.15 K | 318.15 K | 323.15 K
x1 = 0.0999 | – | 1.3912 | – | 1.3876 | – | 1.3811 | 1.3789
x1 = 0.1012 | 1.395 | – | 1.3903 | – | 1.3861 | – | –
x1 = 0.1999 | – | 1.3938 | – | 1.3902 | – | 1.3844 | 1.3819
x1 = 0.2003 | 1.3975 | – | 1.3929 | – | 1.3887 | – | –
x1 = 0.2997 | – | 1.3966 | – | 1.3942 | – | 1.3871 | 1.3846
x1 = 0.3001 | 1.4 | – | 1.3958 | – | 1.3916 | – | –
x1 = 0.4 | – | 1.3997 | – | 1.3962 | – | 1.3898 | 1.3869
x1 = 0.4019 | 1.403 | – | 1.3988 | – | 1.3947 | – | –
x1 = 0.5 | – | 1.4028 | – | 1.3998 | – | 1.393 | 1.3905
x1 = 0.5008 | 1.406 | – | 1.4018 | – | 1.3978 | – | –
x1 = 0.6 | 1.409 | 1.4059 | 1.4049 | 1.4029 | 1.401 | 1.3962 | 1.3938
x1 = 0.6998 | 1.4125 | – | 1.4082 | – | 1.4043 | – | –
x1 = 0.7001 | – | 1.4092 | – | 1.4064 | – | 1.3993 | 1.397
x1 = 0.7999 | – | 1.4127 | – | 1.4097 | – | 1.403 | 1.4
x1 = 0.8 | 1.4158 | – | 1.4117 | – | 1.4077 | – | –
x1 = 0.9 | 1.4195 | 1.4161 | 1.4153 | 1.4132 | 1.4114 | 1.4066 | 1.4039
x1 = 1 | 1.4232 | 1.4199 | 1.419 | 1.4168 | 1.415 | 1.4102 | 1.4078
